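All cell lines were grown in 96-well plates and treated with compound for 48 hours. TGI denotes the concentration required for complete inhibition of growth.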
What was measured:
Assay in all cases: DTP human tumour cell line panel, 48 h
HCC-2998 colon = system: HCC-2998 colon
HCT-15 colon = system: HCT-15 colon
HOP-62 NSCLC = system: HOP-62 NSCLC
MDA-N = system: MDA-N
MOLT-4 leukemia = system: MOLT-4 leukemia
NCI-H226 lung = system: NCI-H226 lung
NCI-H23 lung = system: NCI-H23 lung
NCI-H460 lung = system: NCI-H460 lung
OVCAR-5 ovarian = system: OVCAR-5 ovarian
SF-268 CNS = system: SF-268 CNS
SK-MEL-5 melanoma = system: SK-MEL-5 melanoma
UO-31 renal = system: UO-31 renal

Row | SMILES | TGI (HCC-2998 colon) [µM] | TGI (HCT-15 colon) [µM] | TGI (HOP-62 NSCLC) [µM] | TGI (MDA-N) [µM] | TGI (MOLT-4 leukemia) [µM] | TGI (NCI-H226 lung) [µM] | TGI (NCI-H23 lung) [µM] | TGI (NCI-H460 lung) [µM] | TGI (OVCAR-5 ovarian) [µM] | TGI (SF-268 CNS) [µM] | TGI (SK-MEL-5 melanoma) [µM] | TGI (UO-31 renal) [µM]
1 | COc1ccc(NS(=O)c2ccc(OC)cc2)cc1 (configuration not stated) | > 100 | > 100 | > 100 | > 100 | > 100 | > 100 | > 100 | > 100 | > 100 | 74.4 | > 100 | 48.5
2 | Cc1ccc(/C(O)=C/c2nc3ccccc3[nH]c2=O)c(C)c1 | > 100 | > 100 | 34.3 | > 100 | > 100 | 37 | > 65 | 46.8 | > 100 | 25 | > 92.1 | 30.6
3 | COC(=O)c1c(O)ccc2c1c1c(n2-c2ccc(OC)cc2)C(=O)c2ccccc2C1=O | 11.3 | > 100 | 34.5 | > 100 | > 100 | 73.3 | > 100 | 61.7 | 75.4 | 32.4 | > 100 | 31.1
4 | O/N=C1\CCc2cc3c(cc21)CCC3 | > 100 | > 100 | > 100 | > 100 | > 100 | > 100 | > 100 | > 100 | > 100 | > 100 | > 100 | > 100
5 | O=C(OC(/C=C/c1ccccc1)P1(=O)N(Cc2ccccc2)[C@@H]2CCCC[C@H]2N1Cc1ccccc1)c1ccccc1 (some centres not stated) | > 100 | > 100 | > 100 | > 100 | 6.47 | > 100 | > 31.5 | > 27.3 | > 100 | > 100 | 11.4 | 68.6
6 | CN1CCN(CCCCN2c3ccccc3Sc3ccc(N=[N+]=[N-])cc32)CC1 | 18.3 | 23 | 33.8 | 6.96 | 7.24 | 31.7 | 35.7 | 17.4 | 22.8 | 28.2 | 4.62 | 21.8
7 | O=C1C(=C(C(=O)c2ccccc2)C(=O)c2ccccc2)OC(c2ccccc2)=C1C(=O)c1ccccc1 | 27.6 | 14.9 | 15.6 | 77.9 | 9.86 | 16.4 | 25.8 | 19.2 | 50.4 | 34.8 | 25 | 26.7
8 | CC(=O)N1N=C(c2c(O)ccc3ccccc23)CC1c1ccc(Cl)cc1 (configuration not stated) | 34 | > 100 | 37 | 40.5 | 31 | > 100 | 46.5 | 48.1 | 58 | > 100 | 47 | 93.4
9 | O=C(/C=C(\O)c1ccc(Cl)cc1)C(=O)NN=C(c1ccccc1)c1ccccc1 | > 100 | > 100 | > 100 | > 100 | 95.1 | > 100 | > 100 | 31.3 | > 100 | > 100 | > 100 | 90.4
10 | COc1ccc2nc3ccc(OC)cc3c(SCC3CO3)c2c1 (configuration not stated) | 29.7 | 33.6 | > 100 | 30.6 |  | > 100 | 35.4 | 31 | 69.3 | 31.6 | 33.5 | 24.8
11 | CN(C)/C=C/c1ccncc1 | > 100 | > 100 | > 100 | > 100 | > 100 | > 100 | > 100 | > 100 | > 100 | > 100 | > 100 | > 100
12 | COc1ccc2c(c1)N=C1CSC(c3c(Cl)cccc3[N+](=O)[O-])N1C2 (configuration not stated) | 47.7 | > 100 | > 100 | > 100 | > 100 | 84.6 | > 100 | 62.9 | > 100 | > 100 | 39.5 | > 100
13 | CCN1C[C@]2(C)CC[C@H](OCc3ccccc3)C34C5C[C@@H]6CC[C@](O)(C(C[C@@H]32)C14)C5[C@H]6OCc1ccccc1 (some centres not stated) | > 100 | > 100 | > 100 | > 100 | > 100 | > 100 | > 100 | > 100 | > 100 | > 100 | > 100 | > 100
14 | Cc1nn(C(=O)Cc2ccccc2)c2c1C(c1ccccc1[N+](=O)[O-])SC(N)=N2 (configuration not stated) | > 100 | > 100 | > 100 | > 100 | > 100 | > 100 | > 100 | > 100 |  | > 100 | > 100 | > 100
15 | CCCCc1ccc(Nc2nc(N)c3ncn(COCCO)c3n2)cc1 | 48.9 | 38.6 | 45.1 | > 100 | > 100 | > 100 | 56.3 |  | > 100 | > 100 | 32.7 | > 100
16 | COc1cc(C2(O)c3ccccc3C3=NCCN32)cc(OC)c1OC (configuration not stated) | > 100 | > 100 | > 100 | > 100 | > 100 | > 100 | > 100 | > 100 |  | > 100 | > 100 | > 100
17 | CC(C)c1ccc2[nH]c(O)c(C3=Nc4ccccc4C3=O)c2c1 | > 100 | > 100 | 21 | > 100 | 61.5 | 18.7 | > 100 | > 100 | > 100 | > 100 | > 100 | > 100
18 | COc1ccc(/C=C2\CN(C)CC3C2=NC(=S)NC3c2ccc(OC)cc2)cc1 (configuration not stated) | > 100 | > 100 | > 100 | 3.74 | > 81.1 | > 100 | > 94.1 | 59.8 | > 86 | > 100 | > 100 | > 100

Reference: PubChem BioAssay (NCI)
